# Data reported in patent US20050112573A1, “Method of detecting toxic substance” (priority 2001, published 2005).
# Test system: yeast genes (level of expressed mRNA)
# Assay: DNA chip analysis of expressed mRNA of yeast genes after 2 h culture with a toxic chemical substance
# Type: cell-based, Saccharomyces cerevisiae S288C
# Conditions: for The level of expressed mRNA in the presence of chemical substance/ (ratio to absence of chemical substance): stress protein genes, DNA chip
# Summary of the method: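 S. cerevisiae S288C grown at 25° C in YPD; toxicant added at log phase at growth-inhibitory, non-lethal levels for 2 h, untreated cells as control. Poly(A) mRNA reverse-transcribed with Cy3/Cy5-dUTP, hybridized to whole-genome chip at 65° C >12 h; value is fluorescence ratio versus untreated.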
compound,measurement,setting,value
"C=CC=O [(14), acrolein]",The level of expressed mRNA in the presence of chemical substance/The level of expressed mRNA in the absence of chemical substance,yeast gene YIL140W,0.9
same,"The level of expressed mRNA in the presence of chemical substance/ (in its absence), gene YJL070C","yeast gene YJL070C, ratio of DNA chip fluorescence intensity to that without chemical substance",1.3
same,The level of expressed mRNA in the presence of chemical substance/The level of expressed mRNA in the absence of chemical substance,yeast gene YJL073W,1.1
same,The level of expressed mRNA in the presence of chemical substance/The level of expressed mRNA in the absence of chemical substance,yeast gene YJL089W,1.8
same,"The level of expressed mRNA in the presence of chemical substance/ (ratio to absence), gene YJL096W","yeast gene YJL096W, mitochondria-located protein genes, 2 h culture with chemical",2.1
same,The level of expressed mRNA in the presence of chemical substance/The level of expressed mRNA in the absence of chemical substance,yeast gene YJL116C,2.6
same,The level of expressed mRNA in the presence of chemical substance/ (ratio to absence of chemical substance),yeast gene YJL158C,0.5
same,"The level of expressed mRNA in the presence of chemical substance/ (in its absence), gene YJL167W","yeast gene YJL167W, ratio of DNA chip fluorescence intensity to that without chemical substance",0.9
same,"The level of expressed mRNA in the presence of chemical substance/ (ratio to absence), gene YJL180C","yeast gene YJL180C, mitochondria-located protein genes, 2 h culture with chemical",1.4
same,"The level of expressed mRNA in the presence of chemical substance/ (in its absence), gene YJL216C","yeast gene YJL216C, ratio of DNA chip fluorescence intensity to that without chemical substance",1.1
same,The level of expressed mRNA in the presence of chemical substance/The level of expressed mRNA in the absence of chemical substance,yeast gene YJR004C,0.7
same,The level of expressed mRNA in the presence of chemical substance/The level of expressed mRNA in the absence of chemical substance,yeast gene YJR086W,2.2
same,The level of expressed mRNA in the presence of chemical substance/ (ratio to absence of chemical substance),yeast gene YJR090C,1.0
same,The level of expressed mRNA in the presence of chemical substance/The level of expressed mRNA in the absence of chemical substance,yeast gene YKL008C,0.8
same,The level of expressed mRNA in the presence of chemical substance/The level of expressed mRNA in the absence of chemical substance,yeast gene YKL013C,1.4
same,The level of expressed mRNA in the presence of chemical substance/The level of expressed mRNA in the absence of chemical substance,yeast gene YKL039W,0.8
same,The level of expressed mRNA in the presence of chemical substance/The level of expressed mRNA in the absence of chemical substance,yeast gene YKL041W,1.3
same,The level of expressed mRNA in the presence of chemical substance/The level of expressed mRNA in the absence of chemical substance,yeast gene YKL096W,0.5
same,The level of expressed mRNA in the presence of chemical substance/ (ratio to absence of chemical substance),yeast gene YKL164C,0.3
same,The level of expressed mRNA in the presence of chemical substance/The level of expressed mRNA in the absence of chemical substance,yeast gene YKL165C,0.8
same,The level of expressed mRNA in the presence of chemical substance/The level of expressed mRNA in the absence of chemical substance,yeast gene YKL193C,1.2
same,"The level of expressed mRNA in the presence of chemical substance/ (in its absence), gene YKR009C","yeast gene YKR009C, ratio of DNA chip fluorescence intensity to that without chemical substance",1.0
same,"The level of expressed mRNA in the presence of chemical substance/ (in its absence), gene YKR034W","yeast gene YKR034W, ratio of DNA chip fluorescence intensity to that without chemical substance",1.1
same,The level of expressed mRNA in the presence of chemical substance/ (ratio to absence of chemical substance),yeast gene YKR053C,1.3
same,"The level of expressed mRNA in the presence of chemical substance/ in its absence, gene YKR058W","yeast gene YKR058W, energy system protein genes, 2 h culture with the chemical, ratio to control without chemical",1.3
same,"The level of expressed mRNA in the presence of chemical substance/ (in its absence), gene YLR006C","yeast gene YLR006C, ratio of DNA chip fluorescence intensity to that without chemical substance",1.0
same,The level of expressed mRNA in the presence of chemical substance/ (ratio to absence of chemical substance),yeast gene YLR006C,1.0
same,The level of expressed mRNA in the presence of chemical substance/The level of expressed mRNA in the absence of chemical substance,yeast gene YLR120C,0.8
same,The level of expressed mRNA in the presence of chemical substance/The level of expressed mRNA in the absence of chemical substance,yeast gene YLR136C,0.7
same,The level of expressed mRNA in the presence of chemical substance/The level of expressed mRNA in the absence of chemical substance,yeast gene YLR178C,2.8
same,The level of expressed mRNA in the presence of chemical substance/The level of expressed mRNA in the absence of chemical substance,yeast gene YLR250W,2.5
same,"The level of expressed mRNA in the presence of chemical substance/ in its absence, gene YLR295C","yeast gene YLR295C, energy system protein genes, 2 h culture with the chemical, ratio to control without chemical",1.2
same,"The level of expressed mRNA in the presence of chemical substance/ (ratio to absence), gene YLR295C","yeast gene YLR295C, mitochondria-located protein genes, 2 h culture with chemical",1.2
same,The level of expressed mRNA in the presence of chemical substance/The level of expressed mRNA in the absence of chemical substance,yeast gene YLR327C,1.5
same,"The level of expressed mRNA in the presence of chemical substance/ (in its absence), gene YLR351C","yeast gene YLR351C, ratio of DNA chip fluorescence intensity to that without chemical substance",1.4
same,The level of expressed mRNA in the presence of chemical substance/The level of expressed mRNA in the absence of chemical substance,yeast gene YLR356W,2.2
same,The level of expressed mRNA in the presence of chemical substance/The level of expressed mRNA in the absence of chemical substance,yeast gene YLR362W,1.2
same,"The level of expressed mRNA in the presence of chemical substance/ (in its absence), gene YLR375W","yeast gene YLR375W, ratio of DNA chip fluorescence intensity to that without chemical substance",0.9
same,The level of expressed mRNA in the presence of chemical substance/The level of expressed mRNA in the absence of chemical substance,yeast gene YLR391W,0.5
same,The level of expressed mRNA in the presence of chemical substance/The level of expressed mRNA in the absence of chemical substance,yeast gene YLR429W,0.7
same,"The level of expressed mRNA in the presence of chemical substance/ in its absence, gene YML129C","yeast gene YML129C, energy system protein genes, 2 h culture with the chemical, ratio to control without chemical",1.4
same,"The level of expressed mRNA in the presence of chemical substance/ (ratio to absence), gene YML129C","yeast gene YML129C, mitochondria-located protein genes, 2 h culture with chemical",1.4
same,The level of expressed mRNA in the presence of chemical substance/The level of expressed mRNA in the absence of chemical substance,yeast gene YMR004W,2.2
same,"The level of expressed mRNA in the presence of chemical substance/ (ratio to absence), gene YMR023C","yeast gene YMR023C, mitochondria-located protein genes, 2 h culture with chemical",1.6
same,The level of expressed mRNA in the presence of chemical substance/The level of expressed mRNA in the absence of chemical substance,yeast gene YMR094W,2.8
same,The level of expressed mRNA in the presence of chemical substance/The level of expressed mRNA in the absence of chemical substance,yeast gene YMR104C,1.1
same,The level of expressed mRNA in the presence of chemical substance/ (ratio to absence of chemical substance),yeast gene YMR186W,0.6
same,The level of expressed mRNA in the presence of chemical substance/The level of expressed mRNA in the absence of chemical substance,yeast gene YMR219W,0.5
same,The level of expressed mRNA in the presence of chemical substance/The level of expressed mRNA in the absence of chemical substance,yeast gene YMR226C,1.6
same,"The level of expressed mRNA in the presence of chemical substance/ in its absence, gene YMR267W","yeast gene YMR267W, energy system protein genes, 2 h culture with the chemical, ratio to control without chemical",1.0
same,"The level of expressed mRNA in the presence of chemical substance/ (ratio to absence), gene YMR267W","yeast gene YMR267W, mitochondria-located protein genes, 2 h culture with chemical",1.0
same,"The level of expressed mRNA in the presence of chemical substance/ in its absence, gene YMR267W","yeast gene YMR267W, ratio of DNA chip fluorescence intensity to that without chemical substance",1.0
same,The level of expressed mRNA in the presence of chemical substance/The level of expressed mRNA in the absence of chemical substance,yeast gene YMR275C,0.8
same,The level of expressed mRNA in the presence of chemical substance/The level of expressed mRNA in the absence of chemical substance,yeast gene YMR276W,1.2
same,"The level of expressed mRNA in the presence of chemical substance/ (in its absence), gene YMR278W","yeast gene YMR278W, ratio of DNA chip fluorescence intensity to that without chemical substance",0.8
same,"The level of expressed mRNA in the presence of chemical substance/ (in its absence), gene YMR293C","yeast gene YMR293C, ratio of DNA chip fluorescence intensity to that without chemical substance",1.3
same,The level of expressed mRNA in the presence of chemical substance/The level of expressed mRNA in the absence of chemical substance,yeast gene YMR314W,1.0
